Data on one compound can be found in patent US8410178B2, “CIS 3,4-dihydroxy-2-(3-methylbutanoyl)-5-(3-methylbutyl)-4-(4-methylpentanoyl)cyclopent-2-en-1-derivatives, substantially enantiomerically pure compositions and methods” (KinDex Therapeutics, LLC, priority 2010, dated 2013).

The term pIC50 denotes −log10 of the IC50, conventionally taken in molar units. The term pKi denotes the negative decadic logarithm of the Ki, by convention in mol/L. Low values mean a high Ki, high ones a low Ki.

pIC50, pKi: −log10 of the molar value.

In one assay the target is T1, PPARγ (Homo sapiens, UniProt P37231).
T1 sequence (P37231 1-505): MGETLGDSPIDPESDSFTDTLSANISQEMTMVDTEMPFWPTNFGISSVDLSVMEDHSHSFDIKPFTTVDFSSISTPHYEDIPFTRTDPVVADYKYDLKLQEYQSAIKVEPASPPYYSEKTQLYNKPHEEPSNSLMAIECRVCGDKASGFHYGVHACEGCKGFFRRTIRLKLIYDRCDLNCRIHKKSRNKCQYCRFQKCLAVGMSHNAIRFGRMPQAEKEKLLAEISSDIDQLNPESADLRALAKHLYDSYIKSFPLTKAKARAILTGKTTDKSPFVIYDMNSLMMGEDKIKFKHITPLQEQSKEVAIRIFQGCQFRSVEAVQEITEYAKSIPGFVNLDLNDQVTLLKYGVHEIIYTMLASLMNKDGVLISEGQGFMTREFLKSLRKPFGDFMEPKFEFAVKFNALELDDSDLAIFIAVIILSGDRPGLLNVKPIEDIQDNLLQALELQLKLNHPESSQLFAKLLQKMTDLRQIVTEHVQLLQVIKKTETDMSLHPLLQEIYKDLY
The experiment in a line: PPARγ luciferase reporter assay. It counts as cell-based. The method, then: (§1) The functional effect of (+)-KDT501 on PPARα, PPARδ, and PPARγ activity was evaluated using a PPAR reporter assay (INDIGO Biosciences, PA). This assay utilizes non-human mammalian cells engineered to provide constitutive high level expression of PPARα, PPARδ, or PPARγ and containing a luciferase report gene specific to the appropriate PPAR. Following activation by agonist binding, PPAR induces expression of the luciferase reporter gene. Luciferase activity therefore provides a surrogate for measuring PPAR activity in agonist-treated cells.
(§2) Reporter cells were plated on a 96-well plate at 100 μL per well, and 100 μL of (+)-KDT501 at various final concentrations (25, 12.5, 6.25, 3.125, 1.56 and 0.78 μM) was added to each well. […] 0.1% DMSO was also used as a negative control for each assay. Plates are incubated for 20 hours in a humidified incubator at 37° C. and 5% CO2. After incubation, cell medium was discarded and the cells were treated with 100 μL of luciferase detection reagent for 15 minutes. Plates were analyzed using a luminometer (Victor2, Perkin Elmer). Average relative light unit (RLU) and standard deviation were analyzed using GraphPad Prism.
The PPAR activity assays were repeated as described above using both (+)-KDT501(12.5, 6.25, 3.125, 1.56, and 0.78 μM) and (−)-KDT501 (25, 12.5, 6.25, 3.125, 1.56, and 0.78 μM).
In general terms: A reporter such as luciferase makes a cellular process visible.

In a further assay the target is T2, PPARα (Homo sapiens, UniProt Q07869).
T2 sequence (Q07869 1-468): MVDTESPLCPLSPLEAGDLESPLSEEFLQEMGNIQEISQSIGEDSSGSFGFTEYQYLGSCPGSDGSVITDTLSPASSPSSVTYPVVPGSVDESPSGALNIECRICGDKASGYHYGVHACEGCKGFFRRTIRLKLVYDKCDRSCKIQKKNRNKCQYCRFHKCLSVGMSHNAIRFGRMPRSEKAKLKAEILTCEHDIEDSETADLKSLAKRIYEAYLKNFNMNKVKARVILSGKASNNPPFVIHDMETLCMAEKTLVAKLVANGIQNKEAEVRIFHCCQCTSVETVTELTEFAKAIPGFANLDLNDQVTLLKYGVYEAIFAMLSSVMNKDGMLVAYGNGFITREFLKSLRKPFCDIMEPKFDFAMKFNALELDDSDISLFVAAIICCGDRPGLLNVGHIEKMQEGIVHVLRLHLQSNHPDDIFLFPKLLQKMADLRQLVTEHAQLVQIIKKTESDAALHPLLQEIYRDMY
The experiment in a line: PPARα luciferase reporter assay. Type of assay: cell-based. The settings on record: reporter cells, 20 hours. The method, then:
as §1, §2

For assay [1], the target named is T3, angiotensin II receptor type II (AGTR2) (Homo sapiens, UniProt P50052).
T3 sequence (P50052 1-363): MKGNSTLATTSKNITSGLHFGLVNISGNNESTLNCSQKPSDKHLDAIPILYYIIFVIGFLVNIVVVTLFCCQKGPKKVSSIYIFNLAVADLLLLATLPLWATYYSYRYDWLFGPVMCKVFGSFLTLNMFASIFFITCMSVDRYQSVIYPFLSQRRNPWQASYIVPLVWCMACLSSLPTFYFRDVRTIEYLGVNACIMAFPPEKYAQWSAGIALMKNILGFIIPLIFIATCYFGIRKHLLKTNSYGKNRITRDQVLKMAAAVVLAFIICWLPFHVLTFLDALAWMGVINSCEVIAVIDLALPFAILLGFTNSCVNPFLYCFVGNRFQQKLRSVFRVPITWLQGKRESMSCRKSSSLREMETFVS
Briefly: Competitive binding to AGTR2 ([125I]CGP 42112A). The settings on record: binding target AGTR2; competitor ligand Angiotensin-II.

For a further assay, the target named is T4, PPARδ (Homo sapiens, UniProt Q03181).
T4 sequence (Q03181 1-441): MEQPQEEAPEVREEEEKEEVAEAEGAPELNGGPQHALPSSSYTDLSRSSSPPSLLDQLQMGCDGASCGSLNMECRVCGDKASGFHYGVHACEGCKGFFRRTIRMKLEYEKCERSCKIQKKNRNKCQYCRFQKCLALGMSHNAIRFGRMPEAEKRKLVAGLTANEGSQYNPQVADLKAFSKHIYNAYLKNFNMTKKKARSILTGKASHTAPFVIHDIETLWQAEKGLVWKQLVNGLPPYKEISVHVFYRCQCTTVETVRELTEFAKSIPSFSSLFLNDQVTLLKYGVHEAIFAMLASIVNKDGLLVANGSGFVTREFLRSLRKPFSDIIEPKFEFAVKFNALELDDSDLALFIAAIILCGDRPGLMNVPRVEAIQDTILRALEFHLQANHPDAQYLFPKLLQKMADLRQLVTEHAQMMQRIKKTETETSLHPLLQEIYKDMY
Briefly: PPARδ luciferase reporter assay. Type of assay: cell-based. As to conditions: reporter cells, 20 hours. The protocol:
as §1, §2

For assay [2], the target named is T5, peroxisome proliferator-activated receptor gamma (PPARγ) (Homo sapiens, UniProt P37231).
T5 sequence (P37231 1-505): T1 sequence (P37231 1-505)
Briefly: Competitive binding to PPARγ ([3H]rosiglitazone).

The next assay concerns the target Human DAPK1 (Homo sapiens, UniProt P53355). The experiment in a line: DAPK1 activity, cell free kinase assay. Type of assay: biochemical. As to conditions: cell free assay. The method, then: The effect of (+)-KDT501 and (−)-KDT501 on death-associated protein kinase 1 (DAPK1) activity was evaluated.
Human DAPK1 was incubated with 8 mM MOPS, pH 7.0, 0.2 mM EDTA, 250 μM ZIP peptide substrate ([…]), 10 mM MgOAc, and [γ-^33P-ATP] (specific activity approximately 500 cpm/pmol, concentration as required). (+)-KDT501 or (−)-KDT501 at varying concentrations (100, 30, 10, 1, 0.3, 0.1, 0.03, 0.01 μM) were added to the reaction mixture. The reaction was initiated by addition of the MgATP mix. After incubation for 40 minutes at room temperature, the reaction was stopped by addition of 3% phosphoric acid solution. 10 μL of reaction mixture was spotted onto a P30 filtermat, washed three times for five minutes in 75 mM phosphoric acid and once in methanol prior, then dried and subjected to scintillation counting.

Sequence of Human DAPK1 (P53355 whole entry): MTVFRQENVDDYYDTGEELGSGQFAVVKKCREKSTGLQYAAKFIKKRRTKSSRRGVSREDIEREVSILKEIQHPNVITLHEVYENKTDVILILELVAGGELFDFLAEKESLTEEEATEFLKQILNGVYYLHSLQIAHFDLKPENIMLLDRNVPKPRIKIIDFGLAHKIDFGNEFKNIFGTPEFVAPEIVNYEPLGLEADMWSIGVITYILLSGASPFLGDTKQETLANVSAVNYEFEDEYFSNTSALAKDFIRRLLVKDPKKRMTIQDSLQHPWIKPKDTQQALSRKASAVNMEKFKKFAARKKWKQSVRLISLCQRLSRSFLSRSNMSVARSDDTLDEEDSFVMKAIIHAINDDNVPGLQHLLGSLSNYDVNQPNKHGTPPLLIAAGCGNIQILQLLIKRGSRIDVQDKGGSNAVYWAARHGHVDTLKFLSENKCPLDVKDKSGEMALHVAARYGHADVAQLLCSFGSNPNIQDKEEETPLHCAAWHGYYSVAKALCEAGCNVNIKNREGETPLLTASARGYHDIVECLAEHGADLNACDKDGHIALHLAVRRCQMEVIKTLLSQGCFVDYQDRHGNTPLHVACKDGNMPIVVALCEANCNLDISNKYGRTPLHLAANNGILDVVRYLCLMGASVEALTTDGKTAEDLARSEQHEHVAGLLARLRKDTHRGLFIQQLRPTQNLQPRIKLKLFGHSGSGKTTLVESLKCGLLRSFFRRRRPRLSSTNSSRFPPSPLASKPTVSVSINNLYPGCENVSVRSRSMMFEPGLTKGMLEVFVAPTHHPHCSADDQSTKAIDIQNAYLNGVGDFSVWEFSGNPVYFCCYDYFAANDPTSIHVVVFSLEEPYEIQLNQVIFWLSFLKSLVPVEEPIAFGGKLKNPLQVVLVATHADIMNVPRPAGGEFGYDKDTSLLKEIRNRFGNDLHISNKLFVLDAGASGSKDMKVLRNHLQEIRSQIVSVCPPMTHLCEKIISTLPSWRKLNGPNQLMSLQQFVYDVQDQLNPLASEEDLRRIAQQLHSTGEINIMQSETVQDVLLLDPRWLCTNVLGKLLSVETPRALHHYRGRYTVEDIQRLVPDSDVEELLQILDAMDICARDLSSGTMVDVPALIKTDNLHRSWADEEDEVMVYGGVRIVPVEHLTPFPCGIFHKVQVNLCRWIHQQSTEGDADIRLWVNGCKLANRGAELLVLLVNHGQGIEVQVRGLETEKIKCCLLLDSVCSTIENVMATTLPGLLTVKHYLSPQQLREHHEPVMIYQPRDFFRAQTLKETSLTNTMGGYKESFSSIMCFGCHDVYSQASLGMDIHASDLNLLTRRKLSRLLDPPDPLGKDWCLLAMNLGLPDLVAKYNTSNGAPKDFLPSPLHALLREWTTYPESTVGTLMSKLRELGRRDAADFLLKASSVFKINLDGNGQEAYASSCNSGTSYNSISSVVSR

Turning to `CC(C)CCC(=O)[C@]1(O)C(O)=C(C(=O)CC(C)C)C(=O)[C@H]1CCC(C)C` [(−)-KDT501], the “PPARγ reporter activity (RLU)” value at PPARγ (concentration of test compound 3.13 μM) was found to be 547 RLU; on PPARγ (concentration of test compound 6.25 μM), 972 RLU; at PPARγ (concentration of test compound 12.5 μM), 2407 RLU; on PPARγ (concentration of test compound 25 μM), 4244 RLU. Moreover, the PPARγ activity entry at PPARγ (reporter cells, 20 hours) is reported as “increased PPARγ activity, but to a significantly lesser degree than (+)-KDT501”. The PPARα activity result at PPARα is reported as “little or no effect”. The pIC50 in assay [1] was 4.49; in assay [2], 4.52; on Human DAPK1 it was 4.39. Besides, the pKi in assay [1] and in assay [2] was 4.80 each time. Also, the nH is 0.9 in assay [1] and 1.1 in assay [2] (binding target PPARγ, competitor ligand Rosiglitazone). Moreover, the PPARδ activity result on PPARδ is “little or no effect”.
